What was measured:
[1] = Accelerated drug solubility method (seeded crystal growth) in pressure sensitive adhesive; assay type: physicochemical
Procedure: The solubility of several drugs in IOA/PyEA 60/40 pressure sensitive adhesive copolymer was determined using an accelerated method which is described in detail below. Drug solubility in an IOA pressure sensitive adhesive homopolymer was used for comparison purposes.
In the accelerated drug solubility method, drug and pressure sensitive adhesive mixtures are made up over a wide range of drug concentrations and then these mixtures are seeded on their surface with pure drug crystal. If the crystals grow over time (typically one week) then the mixture is above the saturation concentration.
Separate stock solutions containing pressure sensitive adhesive in ethyl acetate and drug in a suitable solvent such as ethyl acetate or acetonitrile are prepared. The stock solutions are used to prepare 3 gram batches of drug and pressure sensitive adhesive solution. The amount of each stock solution needed is determined using the following equations, [formula] [formula] where: • C is the desired concentration of drug in pressure sensitive adhesive after solvent removal; • CDS is the concentration of drug in the drug stock solution; • CPS is the concentration of pressure sensitive adhesive in the polymer stock solution; • WDS is the weight in grams of drug stock solution; and • WPS is the weight in grams of pressure sensitive adhesive stock solution.
The calculated amounts of drug stock solution and pressure sensitive adhesive stock solution are combined in a glass vial. The vial is capped then shaken to provide a homogeneous solution.
Under a nitrogen atmosphere (e.g., in a glove box) individual drops of the drug and pressure sensitive adhesive solution are placed on a microscope slide and allowed to dry. Additional drops of solution are applied to each original spot until the spot is covered. The second application is allowed to dry. Applications are continued until a 2-3 mil (51-76 μm) layer has been built up. After the final application the slide is allowed to sit in the nitrogen atmosphere for at least 10 minutes.
The slide is removed from the nitrogen atmosphere and seeded with a very tiny amount of dry crystalline drug. A photomicrograph is taken to document the initial appearance of the crystalline “seeds”. Periodically (e.g., daily or weekly) additional photomicrographs are taken and compared with earlier photomicrographs to determine if seed crystal growth or seed crystal absorption is occurring.
The results are usually reported as a range. The low value indicates the highest concentration sample where no crystal growth is observed. The high value indicates the lowest concentration where crystal growth is observed. In some instances additional work may be performed to narrow the range to a single value.

[2] = Lerisetron solubility in PSA by absorption from receptor solution; assay type: physicochemical
Procedure: The solubility of the drug lerisetron in two PSAs was determined by measurement of absorption of the drug into the pressure sensitive adhesive in a heterogeneous system. Lerisetron was dissolved in a receptor solution of HBSS buffer/ethanol (85:15 w:w) to give an initial concentration of 7.94 mg/10 mL. The 100% saturation concentration of lerisetron in the receptor solution is 9.93 mg/10 mL. A defined weight of pressure sensitive adhesive was added to 10 mL of receptor solution and the receptor solution was stirred for 4 hours. After the 4 hours of stirring, the concentration of lerisetron in the receptor solution was measured using standard HPLC techniques. The difference in the initial amount of lerisetron and the final amount of lerisetron in the solution is assumed to have been absorbed by the pressure sensitive adhesive. A partition coefficient between the receptor solution and pressure sensitive adhesive can be calculated. The solubility of lerisetron in the pressure sensitive adhesive can subsequently be determined based on the partition coefficient and the previously determined solubility of lerisetron in the receptor solution.

[3] = in IOA homopolymer (comparison)

CN1CCC(=C2c3ccccc3C=Cc3ccccc32)CC1 [Cyproheptadine]
Drug Solubility in Pressure Sensitive Adhesive Copolymer [1, 3]: 5-6 g drug/100 g pressure sensitive adhesive copolymer | Drug Solubility in Pressure Sensitive Adhesive Copolymer ([1]; in IOA/PyEA 60/40): 10-15 g drug/100 g pressure sensitive adhesive copolymer

c1ccc(Cn2c(N3CCNCC3)nc3ccccc32)cc1 [Lerisetron, lerisetron]
Lerisetron solubility in pressure sensitive adhesive ([2]; in Isooctyl Acrylate/Pyrrolidonoethyl Acrylate/Polymethyl Methacrylate Macromonomer (59/39/2)): 7% | Lerisetron solubility in pressure sensitive adhesive ([2]; in Isooctyl Acrylate/Pyrrolidonoethyl Acrylate/Polymethyl Methacrylate Macromonomer (73/25/2)): 3% | Lerisetron solubility in pressure sensitive adhesive ([2]; in control Isooctyl Acrylate/N-vinyl pyrrolidone/Polymethyl Methacrylate Macromonomer (77/20/3)): less than 1%

C[C@]12CC[C@H]3[C@@H](CCC4=CC(=O)CC[C@@]43C)[C@@H]1CC[C@@H]2O [Testosterone]
Drug Solubility in Pressure Sensitive Adhesive Copolymer [1, 3]: 0.5 g drug/100 g pressure sensitive adhesive copolymer | Drug Solubility in Pressure Sensitive Adhesive Copolymer ([1]; in IOA/PyEA 60/40): 4 g drug/100 g pressure sensitive adhesive copolymer

Reference: patent publication US6902740B2, “Pyrrolidonoethyl (meth)acrylate containing pressure sensitive adhesive compositions” (3M Innovative Properties Company, priority 2001, dated 2005)
